Several values for one entry are separate records, joined by “and”; a condition that tells them apart may be missing. Identical values can stand only once. Inconclusive results and toxic doses are left out.
Tested on: L1210 leukemia ip in BDF1 mice, survival T/C
Test: NCI In Vivo Anticancer Drug Screen. Data for tumor model L1210 Leukemia (intraperitoneal) in B6D2F1 (BDF1) mice
Settings: endpoint: mean survival time, higher = longer survival
Outline: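 Tumor was transplanted into mice, which were then dosed with test compound or vehicle alone. Survival was recorded for each group, and the treated figure was expressed relative to the control figure.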

[1] = dose: 100.0 mg/kg/injection, schedule: Q04DX003 (ip), vehicle: Klucel (hydroxypropylcellulose) (HPC)
[2] = dose: 200.0 mg/kg/injection, schedule: Q04DX003 (ip), vehicle: Klucel (hydroxypropylcellulose) (HPC)
[3] = dose: 400.0 mg/kg/injection, schedule: Q04DX003 (ip), vehicle: Klucel (hydroxypropylcellulose) (HPC)
[4] = dose: 25.0 mg/kg/injection, schedule: Q04DX002 (ip), vehicle: saline with Tween-80
[5] = dose: 50.0 mg/kg/injection, schedule: Q04DX002 (ip), vehicle: saline with Tween-80
[6] = dose: 100.0 mg/kg/injection, schedule: Q01DX009 (ip), vehicle: saline with Tween-80
[7] = dose: 100.0 mg/kg/injection, schedule: Q04DX003 (ip), vehicle: saline with Tween-80
[8] = dose: 200.0 mg/kg/injection, schedule: Q01DX009 (ip), vehicle: saline with Tween-80
[9] = dose: 200.0 mg/kg/injection, schedule: Q04DX003 (ip), vehicle: saline with Tween-80
[10] = dose: 400.0 mg/kg/injection, schedule: Q01DX009 (ip), vehicle: saline with Tween-80
[11] = dose: 400.0 mg/kg/injection, schedule: Q04DX003 (ip), vehicle: saline with Tween-80

CC1(C)OC2OC(C(O)CN3CC3)C(O)C2O1 (stereo not drawn)
T/C (dose: 24.6 mg/kg/injection, schedule: Q01DX Z (ip), vehicle: methylcellulose (MC)): 104 % of control
T/C (dose: 37.0 mg/kg/injection, schedule: Q01DX Z (ip), vehicle: methylcellulose (MC)): 107 % of control
T/C (dose: 56.0 mg/kg/injection, schedule: Q01DX Z (ip), vehicle: methylcellulose (MC)): 99 % of control
T/C (dose: 84.0 mg/kg/injection, schedule: Q01DX Z (ip), vehicle: methylcellulose (MC)): 107 % of control

Nc1nc(SCC(=O)c2ccc(F)cc2)sc1C(=O)c1ccc(F)cc1
T/C (dose: 100.0 mg/kg/injection, schedule: Q04DX002 (ip), vehicle: Klucel (hydroxypropylcellulose) (HPC)): 100 % of control
T/C (dose: 200.0 mg/kg/injection, schedule: Q04DX002 (ip), vehicle: Klucel (hydroxypropylcellulose) (HPC)): 112 % of control
T/C (dose: 400.0 mg/kg/injection, schedule: Q04DX002 (ip), vehicle: Klucel (hydroxypropylcellulose) (HPC)): 100 % of control

CCN=C(NCC)Nc1ccc(NC(=O)c2ccc(C(=O)Nc3ccc(NC(=NCC)NCC)cc3)cc2)cc1
T/C (dose: 1.87 mg/kg/injection, schedule: Q01DX Z (ip), vehicle: water): 93 % of control
T/C (dose: 3.75 mg/kg/injection, schedule: Q01DX Z (ip), vehicle: water): 97 % of control
T/C (dose: 7.5 mg/kg/injection, schedule: Q01DX Z (ip), vehicle: water): 109 % of control
T/C (dose: 8.0 mg/kg/injection, schedule: Q01DX009 (ip), vehicle: carboxymethylcellulose (CMC)): 156 % of control
T/C (dose: 16.0 mg/kg/injection, schedule: Q01DX009 (ip), vehicle: carboxymethylcellulose (CMC)): 167 % of control
T/C (dose: 20.0 mg/kg/injection, schedule: Q01DX001 (ip), vehicle: carboxymethylcellulose (CMC)): 103 % of control
T/C (dose: 21.0 mg/kg/injection, schedule: Q01DX001 (ip), vehicle: other): 103 % of control
T/C (dose: 31.0 mg/kg/injection, schedule: Q01DX001 (ip), vehicle: other): 105 % of control
T/C (dose: 33.0 mg/kg/injection, schedule: Q01DX009 (ip), vehicle: other): 190 % of control
T/C (dose: 40.0 mg/kg/injection, schedule: Q01DX001 (ip), vehicle: carboxymethylcellulose (CMC)): 104 % of control
T/C (dose: 47.0 mg/kg/injection, schedule: Q01DX001 (ip), vehicle: other): 116 % of control
T/C (dose: 50.0 mg/kg/injection, schedule: Q01DX009 (ip), vehicle: other): 181 % of control
T/C (dose: 70.0 mg/kg/injection, schedule: Q01DX001 (ip), vehicle: other): 114 % of control
T/C (dose: 75.0 mg/kg/injection, schedule: Q01DX001 (ip), vehicle: other): 118 % of control
T/C (dose: 75.0 mg/kg/injection, schedule: Q01DX009 (ip), vehicle: other): 107 % of control
T/C (dose: 80.0 mg/kg/injection, schedule: Q01DX001 (ip), vehicle: carboxymethylcellulose (CMC)): 119 % of control
T/C (dose: 100.0 mg/kg/injection, schedule: Q01DX001 (ip), vehicle: carboxymethylcellulose (CMC)): 121 % of control
T/C (dose: 106.0 mg/kg/injection, schedule: Q01DX001 (ip), vehicle: other): 114 % of control
T/C (dose: 150.0 mg/kg/injection, schedule: Q01DX001 (ip), vehicle: other): 153 % of control
T/C (dose: 160.0 mg/kg/injection, schedule: Q01DX001 (ip), vehicle: carboxymethylcellulose (CMC)): 167 % of control and 196 % of control
T/C (dose: 160.0 mg/kg/injection, schedule: Q01DX001 (ip), vehicle: other): 112 % of control
T/C (dose: 240.0 mg/kg/injection, schedule: Q01DX001 (ip), vehicle: other): 227 % of control
T/C (dose: 300.0 mg/kg/injection, schedule: Q01DX001 (ip), vehicle: other): 212 % of control

CC1(C)N=C(N)N=C(N)N1c1ccc(OCc2ccc(C(=O)Nc3cccc(S(=O)(=O)F)c3)cc2)c(Cl)c1
T/C (dose: 25.0 mg/kg/injection, schedule: Q01DX009 (ip), vehicle: Klucel (hydroxypropylcellulose) (HPC)): 100 % of control
T/C [1]: 124 % of control
T/C (dose: 200.0 mg/kg/injection, schedule: Q01DX009 (ip), vehicle: Klucel (hydroxypropylcellulose) (HPC)): 86 % of control
T/C [2]: 162 % of control and 168 % of control
T/C [3]: 105 % of control and 106 % of control and 116 % of control

O=C(Nc1cccc(Cl)c1)Oc1c(Cl)cc(S(=O)(=O)F)cc1Cl
T/C (dose: 25.0 mg/kg/injection, schedule: Q01DX009 (ip), vehicle: saline with Tween-80): 97 % of control
T/C [4]: 101 % of control
T/C (dose: 50.0 mg/kg/injection, schedule: Q01DX009 (ip), vehicle: saline with Tween-80): 93 % of control
T/C [5]: 93 % of control
T/C [6]: 100 % of control
T/C (dose: 100.0 mg/kg/injection, schedule: Q04DX002 (ip), vehicle: saline with Tween-80): 96 % of control and 90 % of control

O=[N+]([O-])c1cc2c(c3cccnc13)COCO2
T/C (dose: 100.0 mg/kg/injection, schedule: Q01DX001 (ip), vehicle: saline): 102 % of control
T/C (dose: 200.0 mg/kg/injection, schedule: Q01DX001 (ip), vehicle: saline): 100 % of control
T/C (dose: 400.0 mg/kg/injection, schedule: Q01DX001 (ip), vehicle: saline): 94 % of control

COC(=O)CC(c1ccc(OC)cc1)C(CC(=O)OC)c1ccc(OC)cc1 (stereo not drawn)
T/C [1]: 98 % of control
T/C [2]: 93 % of control
T/C [3]: 104 % of control

Cc1cccc(C2C(=O)c3ccccc3C2=O)n1
T/C [6]: 88 % of control
T/C [7]: 95 % of control
T/C [8]: 89 % of control
T/C [9]: 99 % of control
T/C [10]: 91 % of control
T/C [11]: 88 % of control

CCCCCCCCC(Br)C(Br)CCCCCCCC(=O)O (stereo not drawn)
T/C [4]: 93 % of control
T/C [5]: 96 % of control

O=C1C(Cl)=C(Cl)C(=O)c2ccccc21
T/C (dose: 0.5 mg/kg/injection, schedule: Q01DX009 (ip), vehicle: Klucel (hydroxypropylcellulose) (HPC)): 108 % of control
T/C (dose: 1.0 mg/kg/injection, schedule: Q01DX009 (ip), vehicle: Klucel (hydroxypropylcellulose) (HPC)): 110 % of control
T/C (dose: 1.0 mg/kg/injection, schedule: Q04DX003 (ip), vehicle: Klucel (hydroxypropylcellulose) (HPC)): 105 % of control
T/C (dose: 2.0 mg/kg/injection, schedule: Q01DX009 (ip), vehicle: Klucel (hydroxypropylcellulose) (HPC)): 108 % of control
T/C (dose: 2.0 mg/kg/injection, schedule: Q04DX003 (ip), vehicle: Klucel (hydroxypropylcellulose) (HPC)): 108 % of control
T/C (dose: 4.0 mg/kg/injection, schedule: Q04DX003 (ip), vehicle: Klucel (hydroxypropylcellulose) (HPC)): 110 % of control
T/C (dose: 5.0 mg/kg/injection, schedule: Q01DX009 (ip), vehicle: saline with Tween-80): 93 % of control
T/C (dose: 10.0 mg/kg/injection, schedule: Q01DX009 (ip), vehicle: saline with Tween-80): 97 % of control
T/C (dose: 20.0 mg/kg/injection, schedule: Q01DX009 (ip), vehicle: saline with Tween-80): 97 % of control

C=C(Br)CNC(=O)Nc1cccc2c1CCCC2
T/C [6]: 94 % of control
T/C [7]: 86 % of control
T/C [8]: 97 % of control
T/C [9]: 86 % of control
T/C [10]: 92 % of control
T/C [11]: 88 % of control

C=C(C)C1(Cc2ccccc2)C(=O)NC(=S)NC1=O
T/C (dose: 9.38 mg/kg/injection, schedule: Q01DX001 (ip), vehicle: saline): 91 % of control
T/C (dose: 10.0 mg/kg/injection, schedule: Q01DX001 (ip), vehicle: saline): 102 % of control

Oc1ccccc1C=NCCN1CC1.Oc1ccccc1C=NCCN1CC1.[Cu]
T/C (dose: 6.25 mg/kg/injection, schedule: Q01DX001 (ip), vehicle: Klucel (hydroxypropylcellulose) (HPC)): 88 % of control
T/C (dose: 12.5 mg/kg/injection, schedule: Q01DX001 (ip), vehicle: Klucel (hydroxypropylcellulose) (HPC)): 95 % of control
T/C (dose: 25.0 mg/kg/injection, schedule: Q01DX001 (ip), vehicle: Klucel (hydroxypropylcellulose) (HPC)): 95 % of control

Cc1ccc(S(=O)(=O)O/N=C/C23c4ccccc4C4C(c5ccccc52)C43)cc1 (stereo not drawn)
T/C [4]: 100 % of control
T/C (dose: 150.0 mg/kg/injection, schedule: Q04DX002 (ip), vehicle: saline with Tween-80): 93 % of control
T/C (dose: 300.0 mg/kg/injection, schedule: Q04DX002 (ip), vehicle: saline with Tween-80): 93 % of control
